From patent publication US6380218B1, “Nicotinamide derivatives” (Pfizer Inc, priority 1997, dated 2002)
Where a name gives a salt, the structure may show the parent alone.

| Structure (SMILES) | melting point [°C] |
| --- | --- |
| Cc1cc(CNC(=O)c2cccnc2Oc2cccc([N+](=O)[O-])c2)cc(C)c1O [Example 108, N-(4-Hydroxy-3,5-dimethyl-benzyl)-2-(3-nitro-phenoxy)-nicotinamide] | 128 to 130 |
| N#Cc1cccc(Oc2ncccc2C(=O)NCc2ccc(S(N)(=O)=O)cc2)c1 [Example 196, 2-(3-Cyano-phenoxy)-N-(4-sulfamoyl-benzyl)-nicotinamide] | 179 to 180 |
| CC(C)(C)c1cc(CNC(=O)c2cccnc2Oc2cccnc2)cc(C(C)(C)C)c1O [Example 34, N-(3,5-Di-tert-butyl-4-hydroxy-benzyl)-2-(pyridin-3-yloxy)-nicotinamide] | 42 to 44 |
| O=C(NCc1ccccc1Cl)c1cccnc1Oc1cccnc1 [Example 12, N-(2-Chloro-benzyl)-2-(pyridin-3-yloxy)-nicotinamide] | 123 to 125 |
| CC(NC(=O)c1cccnc1Oc1ccc(F)cc1)c1ccc(Cl)s1 (single isomer, unassigned; (+)) [Example 141, (+)-N-[1-(5-Chloro-thiophen-2-yl)-ethyl]-2-(4-fluoro-phenoxy)-nicotinamide] | 78 to 80 |
| N#Cc1cccc(Oc2ncccc2C(=O)NCc2ccc(Cl)s2)c1 [Example 111, N-(5-Chloro-thiophen-2-ylmethyl)-2-(3-cyano-phenoxy)-nicotinamide] | 145 to 147 |
| CC(=O)c1ccc(CNC(=O)c2cccnc2Oc2cccnc2)s1 [Example 159, N-(5-Acetyl-thiophen-2-ylmethyl)-2-(pyridin-3-yloxy)-nicotinamide] | 201 to 203 |
| CC(O)c1ccc(CNC(=O)c2cccnc2Oc2cccnc2)s1 (single isomer, unassigned; (+)) [Example 205, (+)-N-[5-(1-Hydroxy-ethyl)-thiophen-2-ylmethyl]-2-(pyridin-3-yloxy)-nicotinamide] | 88 to 90 |
| CC(=O)C1CCC(CNC(=O)c2cccnc2Oc2ccc(F)cc2)CC1 (stereo not drawn) [Example 229, N-(4-Acetyl-cyclohexylmethyl)-2-(4-fluoro-phenoxy)-nicotinamide] | 110 to 111 |
| OC(CCc1c(F)cc(F)cc1F)c1cccnc1Oc1ccc(F)cc1 (stereo not drawn) [Example 274, 1-[2-(4-Fluoro-phenoxy)-pyridin-3-yl]-3-(2,4,6-trifluoro-phenyl)-propan-1-ol] | 90 to 91 |
| CN(C)c1cccc(Oc2ncccc2C(=O)NCc2ccccc2Cl)c1 (as salt: HCl) [Example 118, N-(2-Chloro-benzyl)-2-(3-dimethylamino-phenoxy)-nicotinamide] | 85 to 87 |
| O=C(NCc1ccc(C(=O)C(F)(F)F)cc1)c1cccnc1Oc1cccnc1 [Example 219, 2-(Pyridin-3-yloxy)-N-(4-trifluoroacetyl-benzyl)-nicotinamide] | 134 to 136 |
| CC(NC(=O)c1cccnc1Oc1ccc(F)cc1)c1ccc(Cl)s1 (stereo not drawn) [Example 8, N-[1-(5-Chloro-thiophen-2-yl)-ethyl]-2-(4-fluoro-phenoxy)-nicotinamide] | 87 to 89 |
| CSc1cccc(Oc2ncccc2C(=O)NCc2ccc(C(C)(C)O)cc2)c1 [Example 206, N-[4-(1-Hydroxy-1-methyl-ethyl)-benzyl]-2-(3-methylsulfanyl-phenoxy)-nicotinamide] | 107 to 109 |
| CC(C)(O)c1ccc(CNC(=O)c2cccnc2Oc2ccc(F)c(C#N)c2)cc1 [Example 243, 2-(3-Cyano-4-fluoro-phenoxy)-N-[4-(1-hydroxy-1-methyl-ethyl)-benzyl]-nicotinamide] | 147 to 149 |
| CC(C)(O)c1ccc(CC(=O)Nc2cccnc2Oc2cccc(C#N)c2)cc1 [Example 218, N-[2-(3-Cyano-phenoxy)-pyridin-3-yl]-2-[4-(1-hydroxy-1methyl-ethyl)-phenyl]-acetamide] | 97 to 99 |
| O=C(NCc1ccncc1)c1cccnc1Oc1cccnc1 [Example 208, N-Pyridin4-ylmethyl-2-(pyridin-3-yloxy)-nicotinamide] | 142 to 144 |
| CC(C)(O)c1ccc(CNC(=O)c2cccnc2Oc2ccc3c(c2)OCO3)cc1 [Example 293, 2-(Benzo[1,3]dioxol-5-yloxy)-N-[4-(1-hydroxy-1-methyl-ethyl)-benzyl]-nicotinamide] | 118 to 120 |
| CC(=O)c1cccc(Oc2ncccc2C(=O)NCc2ccc(C(C)(C)O)cc2F)c1 [Example 237, 2-(3-Acetyl-phenoxy)-N-[2-fluoro-4-(1-hydroxy-1-methyl-ethyl)-benzyl]nicotinamide] | 68 to 70 |
| COc1cccc(Oc2ncccc2C(=O)NCc2ccc(S(N)(=O)=O)cc2)c1 [Example 200, 2-(3-Methoxy-phenoxy)-N-(4-sulfamoyl-benzyl)-nicotinamide] | 142 to 143 |
| O=C(NCC1CCC=CO1)c1cccnc1Oc1ccc(F)cc1 (stereo not drawn) [Example 195, N-(3,4-Dihydro-2H-pyran-2-ylmethyl)-2-(4-fluoro-phenoxy)-nicotinamide] | 55 to 57 |
| CC(=O)c1cccc(Oc2ncccc2C(=O)NCc2ccc(C(C)O)cc2)c1 (stereo not drawn) [Example 223, 2-(3-Acetyl-phenoxy)-N-[4-(1-hydroxy-ethyl)-benzyl]-nicotinamide] | 105 to 107 |
| Cc1ccc(CNC(=O)c2cccnc2Oc2cccnc2)cc1 [Example 13, N-(4-Methyl-benzyl)-2-(pyridin-3-yloxy)-nicotinamide] | 91 to 93 |
| Cc1ccsc1CNC(=O)c1cccnc1Oc1cncc(Cl)c1 [Example 54, 2-(5-Chloro-pyridin-3-yloxy)-N-(3-methyl-thiophen-2-ylmethyl)-nicotinamide] | 115 to 117 |
| O=C(NCc1ccccc1F)c1cccnc1Oc1cccnc1 [Example 26, N-(2-Fluoro-benzyl)-2-(pyridin-3-yloxy)-nicotinamide] | 90 to 92 |
| O=C(NCc1ccc(Cl)s1)c1cccnc1Oc1cccc([N+](=O)[O-])c1 [Example 109, N-(5-Chloro-thiophen-2-ylmethyl)-2-(3-nitro-phenoxy)-nicotinamide] | 115 to 117 |
| N#Cc1cccc(Oc2ncccc2C(=O)NCc2ccc3c(c2)CC(=O)N3)c1 [Example 112, 2-(3-Cyano-phenoxy)-N-(2-oxo-2,3-dihydro-1H-indol-5-ylmethyl)-nicotinamide] | 197 to 199 |
| CC(C)(O)c1ccc(CNC(=O)c2cccnc2Oc2ccc3ncoc3c2)cc1 [Example 302, 2-(Benzooxazol-6-yloxy)-N-(4-(1-hydroxy-1-methyl-ethyl)-benzyl)-nicotinamide] | 92 to 94 |
| O=C(Nc1ccc2[nH]c(=O)oc2c1)c1cccnc1Oc1ccc(F)cc1 [Example 74, 2-(4-Fluoro-phenoxy)-N-(2-oxo-2,3-dihydro-benzooxazol-6-yl)-nicotinamide] | 289 to 291 |
| O=C(NCc1c(F)cc(F)cc1F)c1cccnc1Oc1ccc(F)cc1 [Example 67, 2-(4-Fluoro-phenoxy)-N-(2,4,6-trifluoro-benzyl)-nicotinamide] | 128 to 130 |

Continued, values first:

| melting point [°C] | Structure (SMILES) |
| --- | --- |
| 88 to 90 | CC(C)(O)c1ccc(CNC(=O)c2cccnc2Oc2ccc(F)cc2)o1 [Example 79, 2-(4-Fluoro-phenoxy)-N-[5-(1-hydroxy-1-methyl-ethyl)-furan-2-ylmethyl]-nicotinamide] |
| 185 to 187 | O=C(NCc1ccc(O)cc1)c1cccnc1Oc1ccc(F)cc1 [Example 103, 2-(4-Fluoro-phenoxy)-N-(4-hydroxy-benzyl)-nicotinamide] |
| 128 to 129 | O=C(NCc1ccc(N2CCC2)cc1)c1cccnc1Oc1ccc(F)cc1 [Example 87, N-(4-Azetidin-1-yl-benzyl)-2-(4-fluoro-phenoxy)-nicotinamide] |
| 138 to 139 | O=C1CCN(c2ccc(CNC(=O)c3cccnc3Oc3ccc(F)cc3)cc2)CC1 [Example 92, 2-(4-Fluoro-phenoxy)-N-[4-(4-oxo-piperidin-1-yl)-benzyl]-nicotinamide] |
| 109 to 111 | O=C(NCc1cc2ccccc2s1)c1cccnc1Oc1ccc(F)cc1 [Example 65, N-Benzo[b]thiophen-2-ylmethyl-2-(4-fluoro-phenoxy)-nicotinamide] |
| 99 to 101 | O=C(NCc1cc(Cl)cs1)c1cccnc1Oc1ccc(F)cc1 [Example 62, N-(4-Chloro-thiophen-2-ylmethyl)-2-(4-fluoro-phenoxy)-nicotinamide] |
| 106 to 108 | CC(C)(O)c1ccc(CNC(=O)c2cccnc2Oc2ccc(F)cc2)cc1 |
| 118 to 120 | CC(=O)c1ccc(CC(=O)Nc2cccnc2Oc2ccc(F)cc2)cc1 [Example 137, 2-(4-Acetyl-phenyl)-N-[2-(4-fluoro-phenoxy)-pyridin-3-yl]-acetamide] |
| 95 to 97 | O=C(NCc1ccc(C2(O)CCC2)cc1)c1cccnc1Oc1ccc(F)cc1 [Example 85, 2-(4-Fluoro-phenoxy)-N-[4-(1-hydroxy-cyclobutyl)-benzyl]-nicotinamide] |
| 62 to 64 | O=C(CCc1ccc(F)cc1)c1cccnc1Oc1cccnc1 [Example 258, 3-(4-Fluoro-phenyl)-1-[2-(pyridin-3-yloxy)-pyridin-3-yl]-propan-1-one] |
| 115 to 118 | O=C(NCc1c(F)cccc1Cl)c1cccnc1Oc1ccc(F)cc1 [Example 5, N-(2-Chloro-6-fluoro-benzyl)-2-(4-fluoro-phenoxy)-nicotinamide] |
| 71 to 73 | O=C(NCc1ccco1)c1cccnc1Oc1ccc(F)cc1 [Example 2, 2-(4-Fluoro-phenoxy)-N-furan-2-ylmethyl-nicotinamide] |
| 94 to 95 | O=C(CCc1ccc(C(F)(F)F)cc1)c1cccnc1Oc1ccc(F)cc1 [Example 252, 1-[2-(4-Fluoro-phenoxy)-pyridin-3-yl]-3-(4-trifluoromethyl-phenyl)-propan-1-one] |
| 102 to 104 | CC(C)(O)c1ccc(CNC(=O)c2cccnc2Oc2ccc(F)cc2)c(Cl)c1 [Example 86, N-[2-Chloro-4-(1-hydroxy-1-methyl-ethyl)-benzyl]-2-(4-fluoro-phenoxy)-nicotinamide] |
| 78 to 80 | CC1(c2ccc(CNC(=O)c3cccnc3Oc3ccc(F)cc3)cc2)OCCO1 [Example 94, 2-(4-Fluoro-phenoxy)-N-[4-(2-methyl-[1,3]dioxolan-2-yl)-benzyl]-nicotinamide] |
